Results: US8557864B2, “Agent having neurotrophic factor-like activity” (Nagoya Industrial Science Research Institute, priority 2007, dated 2013)

Tested on: mice
Assay: Voluntary alternation behavior test (Y-maze test) of mice administered with trimethyltin
Type: in vivo
Settings: TMT 2 mg/kg weight intraperitoneally
Protocol: The voluntary alternation behavior test (Y-maze test) is one kind of a behavior test using a Y-shaped maze constituted with three arms. First, a mouse is placed on the tip of one arm out of the three arms, letting the mouse freely explore in the maze over 8 minutes, and arms where the mouse transferred are recorded in order. Then, the number of times of transferring to each arm (total arm selection number (total arm entries)) and the number of sequentially selecting three different arms (number of alternation behavior (number of spontaneous behavior)) are counted.
Trimethyltin (hereinafter referred to as “TMT”) is an organic metal compound having neurotoxicity, and acute nerve cell death is cased particularly in granular nerve cells of the hippocampus dentate gyrus, which thus affects memory and learning abilities of a mouse.
The voluntary alternation tests (Y-maze tests) were performed on 1) test groups to which the compound 8 was singly administered and 2) test groups to which TMT and the compound 8 were administered. In the test groups to which the compound 8 was singly administered, the compound 8 was dissolved in 0.1% DMSO to adjust a concentration so as to have each of the doses of 100 and 500 μg/kg and intraperitoneally injected to 6 mice in every administration example each in a dose of 0.25 mL. In 0 μg/kg weight administration examples of controls, 0.25 mL of a phosphoric acid buffer containing 0.1% DMSO was intraperitoneally injected in each time. The voluntary alternation tests (Y-maze tests) were performed on each of the administration groups after the elapse of 2 hours from intraperitoneal administration. In the test group in which TMT and the compound 8 were administered, TMT (2 mg/kg weight) was intraperitoneally administered to a mouse, and the compound 8 was intraperitoneally administered in the same manner as the test groups in which the compound 8 was singly administered after 2 days have passed, and the voluntary alternation test (Y-maze test) was performed after the elapse of 2 hours. FIG. 32 show the results. Significance tests were performed in a Turkey's test (*, ##) and a Student's t-test (++). “DAEE” denotes the compound 8.

SMILES | voluntary alternation behavior after TMT treatment
[CH3][Sn+]([CH3])[CH3] [TMT, Trimethyltin, reference compound] | significantly decreased

Tested on: mice under chronic mild stress
Assay: Tail suspension test comparing compound 8 and fluvoxamine after chronic mild stress
Type: in vivo
Settings: Exp. 2 (1 week after stress); compound 8 500 μg/kg, fluvoxamine 1000 μg/kg intraperitoneally once per day
Protocol: 7-week-old male ddY strain mice fed in one cage for 4 mice were first subjected to forced swimming for 15 minutes in the same manner as stress in Example 2 (behavior test of mice under stress) (1) described in the paragraph [0063] in the specification. Then, stress for 1 week using 3 kinds of cages was regarded as 1 cycle, and the stress was applied for 3 cycles (3 weeks) and chronic mild stress (CMS) was applied. The compound 8 and fluvoxamine were administered to mice immediately after stress in Exp. 1, 1 week after stress in Exp. 2, and 2 weeks after stress in Exp. 3, respectively, and tail suspension tests were carried out on the respective test groups. In each test group, the compound 8 was adjusted in concentration so as to have each of the doses of […] and fluvoxamine was adjusted in concentration so as to have a dose of 1000 μg/kg, by dissolving in 0.1% DMSO, and each dose of the compound 8 and fluvoxamine were intraperitoneally injected to mice once per day from the time immediately after stress. Further, to 7-week-old male ddY strain mice fed in one cage for 4 mice without stress, the compound 8 and fluvoxamine were administered to carry out the tail suspension tests in the same manner as the stressed mice. FIG. 31 show the result. A significance test was performed in a Student's t-test (*). […] “DAEE” denotes the compound 8 and “Flu” denotes fluvoxamine.

SMILES | effect on depressive symptom (immobility time)
COCCCC/C(=N\OCCN)c1ccc(C(F)(F)F)cc1 [fluvoxamine] | an effect could not be recognized

Same assay, conditions: Exp. 3 (2 weeks after stress); fluvoxamine 1000 μg/kg intraperitoneally once per day

SMILES | effect on depressive symptom (immobility time)
COCCCC/C(=N\OCCN)c1ccc(C(F)(F)F)cc1 [fluvoxamine] | recognized only in Exp. 3

Tested on: MAP kinases
Assay: Measurement of activation of MAP kinases in cultured nerve cells (western immunoblotting)
Type: cell-based
Settings: fetal rat cerebral cortex nerve cells, compound 500 μg/ml, 30 minutes, relative to control
Protocol: Activation of MAP kinases was measured on respective compounds in Table 1 including the compound obtained in Production Example with western immunoblotting as follows. Nerve cells were dispersed from a cerebral cortex of a 17-day-old fetal rat and the nerve cells were cultured in a Dulbecco's modified eagle medium (DMEM) containing 5%; fetal bovine serum for 1 day. A culture solution was exchanged to a serum-free medium (B27 supplement added Neurobasal, Invitrogen Corporation), and the nerve cells were cultured in a culture petri dish coated with polyornithine at a density of 20,000 to 40,000 cells/cm^2. Three days later, each of the compounds in Table 1 was added thereto, and culture for 30 minutes was continued. Then, cells were recovered on ice with a solution of a Tris-HCL buffer as a base containing a phosphatase inhibitor. The protein concentration of the obtained cell extraction was determined using a BCA Protein Assay Kit (TAKARABIO INC.), a constant amount (3 μg for MAP kinase measurement, 5 μg for phosphorylated MAP kinase measurement) of the protein was electrophoresed with a polyacrylic amide gel. The protein was transcribed to a PVDF membrane from the gel after electrophoresis, and western immunoblotting was carried out using the primary antibodies: an anti-MAP kinase antibody (Cell Signaling Technology, Inc.) and an antiphosphorylated MAP kinase antibody (Cell Signaling Technology, Inc.), respectively. Subsequently, an enzyme activity was subjected to color development by being reacted with the secondary antibody: an alkaline phosphatase labeled anti-rabbit IgG antibody (Promega KK) to measure MAP kinases and phosphorylated MAP kinases. In addition, each compound was dissolved in 0.7% DMSO and adjusted to have a concentration of 500 μg/ml. A control was added with a phosphoric acid buffer containing 0.1% DMSO in the same amount as the compound.
The above obtained concentration measurement of the electrophoresis gel band was digitalized by calculating an intensity with Image J (BioArts International, Inc.). The numerical value of MAP kinases of each compound was divided by the numerical value of the control's MAP kinases, and the numerical value of phosphorylated MAP kinases of each compound was divided by the numerical value of the control's phosphorylated MAP kinases to find a ratio of the MAP kinases of each compound to the control and a ratio of the phosphorylated MAP kinases of the each compound to the control. Then, the obtained ratio of the phosphorylated MAP kinases to the control was divided by the obtained ratio of the MAP kinases to the control to find a ratio of the phosphorylated MAP kinases to the MAP kinases and graphs were formed and shown in FIGS. 1 to 3. Compound 1, compound 6, compound 11, compound 16, compound 21 and compound 36 in Table 1 were used from products made by Wako Pure Chemical Industries, Ltd.

SMILES | ratio of phosphorylated MAP kinases to MAP kinases
CCCCCCCCCC(=O)OC [Compound 2, decanoic acid methyl ester] | high activities
CCCCCCCCCC(=O)OCC [Compound 3, decanoic acid ethyl ester] | high activities
CCCCCCC/C=C/C(=O)O [Compound 6, trans-2-decenoic acid] | high activities
CCCCCCC/C=C/C(=O)OC [Compound 7, trans-2-decenoic acid methyl ester] | twice or more
C=CCCCCCCCC(=O)OC [Compound 12, trans-9-decenoic acid methyl ester] | high activities
C=CCCCCCCCC(=O)OCC [Compound 13, trans-9-decenoic acid ethyl ester] | high activities
C=CCCCCCCCCC(=O)OC [Compound 22, trans-10-undecenoic acid methyl ester] | high activities
C=CCCCCCCCCC(=O)OCC [Compound 23, trans-10-undecenoic acid ethyl ester] | high activities
CCCCCCC/C=C/COC(=O)/C=C/CCCCCCC [Compound 47, trans-2-decenoic acid-trans-2-decenyl ester] | twice or more
CCCCCCC/C=C/C(=O)OC1CCCCC1 [Compound 48, trans-2-decenoic acid cyclohexyl ester] | twice or more
CCCCCCC/C=C/C(=O)OCCCCCCCC [Compound 53, trans-2-decenoic acid octyl ester] | twice or more
CCCCCCC/C=C/C(=O)OC(C)C [Compound 54, trans-2-decenoic acid isopropyl ester] | twice or more
CCOC(=O)/C=C(\C)CCC=C(C)C [Compound 77, geranic acid ethyl ester] | high activities
CCOC(=O)CC(C)CCCC(C)C (stereo not drawn) [Compound 78, 3,7-dimethyloctanoic acid ethyl ester] | high activities

Same assay, conditions: fetal rat cerebral cortex nerve cells, compound 500 μg/ml, 30 minutes, relative to control; listed as trans-2-decenic acid methyl ester

SMILES | ratio of phosphorylated MAP kinases to MAP kinases [times]
CCCCCCC/C=C/C(=O)OC [Compound 7, trans-2-decenoic acid methyl ester] | 6
